For assay [1], the target named is T1, Delta(24)-sterol reductase (Homo sapiens, UniProt Q15392).
T1 sequence (Q15392 whole entry): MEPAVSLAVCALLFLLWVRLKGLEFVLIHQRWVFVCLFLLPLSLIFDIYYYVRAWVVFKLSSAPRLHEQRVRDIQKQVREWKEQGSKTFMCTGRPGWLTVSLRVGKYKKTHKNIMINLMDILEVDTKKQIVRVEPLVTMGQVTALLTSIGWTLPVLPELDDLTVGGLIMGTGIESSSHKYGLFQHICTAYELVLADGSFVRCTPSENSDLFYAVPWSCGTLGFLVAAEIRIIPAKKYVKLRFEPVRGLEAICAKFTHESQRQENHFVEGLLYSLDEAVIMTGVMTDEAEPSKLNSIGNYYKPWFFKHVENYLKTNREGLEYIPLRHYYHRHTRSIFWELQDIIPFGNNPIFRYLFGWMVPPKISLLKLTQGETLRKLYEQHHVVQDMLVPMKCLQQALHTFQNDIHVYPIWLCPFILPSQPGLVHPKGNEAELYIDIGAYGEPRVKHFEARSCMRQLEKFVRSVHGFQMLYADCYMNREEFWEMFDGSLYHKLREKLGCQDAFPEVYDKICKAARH

Assay [2] deals with T2, ATP-dependent 6-phosphofructokinase, platelet type (Homo sapiens, UniProt Q01813).
T2 sequence (Q01813 whole entry): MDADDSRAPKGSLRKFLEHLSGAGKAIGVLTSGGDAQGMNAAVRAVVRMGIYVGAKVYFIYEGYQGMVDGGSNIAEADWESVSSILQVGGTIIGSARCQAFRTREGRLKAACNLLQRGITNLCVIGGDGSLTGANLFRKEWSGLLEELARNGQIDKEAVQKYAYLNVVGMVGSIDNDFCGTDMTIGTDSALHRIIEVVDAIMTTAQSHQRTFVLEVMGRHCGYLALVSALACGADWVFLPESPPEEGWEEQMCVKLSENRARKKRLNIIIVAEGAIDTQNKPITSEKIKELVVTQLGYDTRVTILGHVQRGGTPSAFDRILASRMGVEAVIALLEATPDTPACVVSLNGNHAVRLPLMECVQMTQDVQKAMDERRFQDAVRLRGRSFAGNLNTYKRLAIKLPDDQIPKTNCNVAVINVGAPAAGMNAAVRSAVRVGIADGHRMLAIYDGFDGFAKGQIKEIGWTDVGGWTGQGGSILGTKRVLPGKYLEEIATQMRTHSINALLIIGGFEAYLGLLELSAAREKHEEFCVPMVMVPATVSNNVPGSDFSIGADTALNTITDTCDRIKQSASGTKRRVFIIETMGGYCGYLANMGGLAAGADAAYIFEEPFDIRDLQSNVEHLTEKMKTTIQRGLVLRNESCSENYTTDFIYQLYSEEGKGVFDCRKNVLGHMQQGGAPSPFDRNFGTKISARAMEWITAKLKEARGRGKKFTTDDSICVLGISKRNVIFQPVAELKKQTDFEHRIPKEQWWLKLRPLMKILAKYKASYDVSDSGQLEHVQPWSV

Assay [3] deals with Tyrosine-protein kinase CSK (Homo sapiens, UniProt P41240).
Assay [4] concerns the target T3, Succinate--CoA ligase [ADP-forming] subunit beta, mitochondrial (Homo sapiens, UniProt Q9P2R7).
T3 sequence (Q9P2R7 whole entry): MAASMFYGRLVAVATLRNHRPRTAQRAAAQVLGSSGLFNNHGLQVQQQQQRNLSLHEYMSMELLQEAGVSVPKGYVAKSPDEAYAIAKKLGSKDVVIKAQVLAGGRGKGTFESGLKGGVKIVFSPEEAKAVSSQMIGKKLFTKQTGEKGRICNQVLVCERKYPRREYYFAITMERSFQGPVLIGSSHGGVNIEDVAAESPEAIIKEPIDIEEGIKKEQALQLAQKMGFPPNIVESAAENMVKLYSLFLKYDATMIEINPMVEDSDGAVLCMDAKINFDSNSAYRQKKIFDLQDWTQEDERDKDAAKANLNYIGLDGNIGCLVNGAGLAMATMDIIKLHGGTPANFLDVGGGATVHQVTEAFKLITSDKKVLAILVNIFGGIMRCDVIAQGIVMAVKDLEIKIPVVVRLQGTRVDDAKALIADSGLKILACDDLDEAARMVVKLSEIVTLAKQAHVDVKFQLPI

Assay [5] deals with Tyrosine-protein kinase SYK (Homo sapiens, UniProt P43405).
Assay [6] addresses Protein kinase C theta type (Homo sapiens, UniProt Q04759).
Assay [7] concerns the target T4, Uncharacterized protein FLJ45252 (Homo sapiens, UniProt Q6ZSR9).
T4 sequence (Q6ZSR9 whole entry): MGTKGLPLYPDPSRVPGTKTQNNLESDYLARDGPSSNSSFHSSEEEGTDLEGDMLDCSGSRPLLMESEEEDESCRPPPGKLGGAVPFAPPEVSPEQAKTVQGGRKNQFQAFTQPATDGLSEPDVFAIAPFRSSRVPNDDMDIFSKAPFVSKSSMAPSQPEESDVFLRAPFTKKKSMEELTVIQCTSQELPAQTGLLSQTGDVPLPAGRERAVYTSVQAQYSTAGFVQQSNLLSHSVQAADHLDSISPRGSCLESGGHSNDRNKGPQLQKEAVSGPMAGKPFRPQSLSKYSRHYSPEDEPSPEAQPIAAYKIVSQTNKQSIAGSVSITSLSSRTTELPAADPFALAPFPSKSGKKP
To be noted: read-out: Kd apparent; k-562, colo 205, sk-n-be(2) and mv-4-11.

In assay [8] the target is Calcium/calmodulin-dependent protein kinase kinase 2 (Homo sapiens, UniProt Q96RR4).
In assay [9] the target is Tyrosine-protein kinase ABL2 (Homo sapiens, UniProt P42684).
Assay [10] addresses Wee1-like protein kinase (Homo sapiens, UniProt P30291).
Assay [11] concerns the target Mitogen-activated protein kinase 9 (Homo sapiens, UniProt P45984).

Where a name gives a salt, the structure may show the parent alone. Activity calls are given as the source filed them. Cut-off read from the data, not from the text of the source, for most assays here: actives have a measured Kd and inactives only a lower limit.
Note: in the data inactive means no Kd found up to 30 µM.

Sequence of Tyrosine-protein kinase ABL2 (P42684 whole entry): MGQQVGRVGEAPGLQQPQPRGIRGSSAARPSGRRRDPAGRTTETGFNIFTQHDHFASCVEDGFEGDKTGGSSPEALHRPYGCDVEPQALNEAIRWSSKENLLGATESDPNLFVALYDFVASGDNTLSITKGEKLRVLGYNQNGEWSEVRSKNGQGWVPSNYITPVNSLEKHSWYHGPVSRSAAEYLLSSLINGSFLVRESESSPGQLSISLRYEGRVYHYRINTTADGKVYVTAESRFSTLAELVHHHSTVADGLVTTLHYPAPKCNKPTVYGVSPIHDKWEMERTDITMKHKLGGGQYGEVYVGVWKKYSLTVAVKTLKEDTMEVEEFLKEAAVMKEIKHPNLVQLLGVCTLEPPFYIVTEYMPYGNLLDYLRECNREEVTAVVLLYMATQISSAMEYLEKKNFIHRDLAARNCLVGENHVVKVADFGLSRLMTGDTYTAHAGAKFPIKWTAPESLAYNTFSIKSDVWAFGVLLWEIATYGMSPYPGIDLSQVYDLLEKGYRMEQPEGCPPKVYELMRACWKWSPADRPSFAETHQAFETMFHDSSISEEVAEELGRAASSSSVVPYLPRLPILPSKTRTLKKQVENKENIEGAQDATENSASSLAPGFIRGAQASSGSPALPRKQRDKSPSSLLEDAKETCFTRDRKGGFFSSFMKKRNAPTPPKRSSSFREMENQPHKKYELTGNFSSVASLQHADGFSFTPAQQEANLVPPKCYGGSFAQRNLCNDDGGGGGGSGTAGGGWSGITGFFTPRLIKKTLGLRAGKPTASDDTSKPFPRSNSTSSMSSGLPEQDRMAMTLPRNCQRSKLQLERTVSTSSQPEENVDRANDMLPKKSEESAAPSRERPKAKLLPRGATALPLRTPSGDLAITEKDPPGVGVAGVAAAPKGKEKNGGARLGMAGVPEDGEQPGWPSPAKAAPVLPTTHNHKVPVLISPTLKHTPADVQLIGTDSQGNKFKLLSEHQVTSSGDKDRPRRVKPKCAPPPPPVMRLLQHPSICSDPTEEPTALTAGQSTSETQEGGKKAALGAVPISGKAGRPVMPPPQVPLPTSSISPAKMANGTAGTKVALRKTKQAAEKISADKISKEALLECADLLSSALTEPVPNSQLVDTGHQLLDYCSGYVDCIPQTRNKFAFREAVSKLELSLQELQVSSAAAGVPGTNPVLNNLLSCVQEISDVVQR
Sequence of Tyrosine-protein kinase CSK (P41240 whole entry): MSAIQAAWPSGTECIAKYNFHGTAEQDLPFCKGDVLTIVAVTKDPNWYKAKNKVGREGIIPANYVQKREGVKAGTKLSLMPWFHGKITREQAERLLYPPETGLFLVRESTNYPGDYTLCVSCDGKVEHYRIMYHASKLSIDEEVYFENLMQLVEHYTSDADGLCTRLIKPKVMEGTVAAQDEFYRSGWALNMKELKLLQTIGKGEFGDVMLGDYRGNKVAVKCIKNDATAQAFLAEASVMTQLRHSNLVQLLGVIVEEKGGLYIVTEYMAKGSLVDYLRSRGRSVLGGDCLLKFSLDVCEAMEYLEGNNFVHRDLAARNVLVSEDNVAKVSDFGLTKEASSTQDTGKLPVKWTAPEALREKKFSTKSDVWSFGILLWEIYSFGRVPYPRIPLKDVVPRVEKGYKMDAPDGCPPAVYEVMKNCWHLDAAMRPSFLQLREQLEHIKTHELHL
Sequence of Calcium/calmodulin-dependent protein kinase kinase 2 (Q96RR4 whole entry): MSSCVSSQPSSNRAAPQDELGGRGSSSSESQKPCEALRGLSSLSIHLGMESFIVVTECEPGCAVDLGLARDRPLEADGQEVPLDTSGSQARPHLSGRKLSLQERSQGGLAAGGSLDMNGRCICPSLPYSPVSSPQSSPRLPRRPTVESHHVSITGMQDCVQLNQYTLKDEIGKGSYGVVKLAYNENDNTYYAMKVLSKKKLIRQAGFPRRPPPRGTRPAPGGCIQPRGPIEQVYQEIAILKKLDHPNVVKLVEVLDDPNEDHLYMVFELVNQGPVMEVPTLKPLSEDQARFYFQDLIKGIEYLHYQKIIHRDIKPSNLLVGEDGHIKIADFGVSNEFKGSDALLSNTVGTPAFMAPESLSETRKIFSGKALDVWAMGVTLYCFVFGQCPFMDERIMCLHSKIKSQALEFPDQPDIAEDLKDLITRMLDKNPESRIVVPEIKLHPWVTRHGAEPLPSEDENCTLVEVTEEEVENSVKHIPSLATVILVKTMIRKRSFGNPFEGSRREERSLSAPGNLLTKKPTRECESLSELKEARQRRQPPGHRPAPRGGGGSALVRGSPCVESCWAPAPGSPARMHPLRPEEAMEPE
Sequence of Protein kinase C theta type (Q04759 whole entry): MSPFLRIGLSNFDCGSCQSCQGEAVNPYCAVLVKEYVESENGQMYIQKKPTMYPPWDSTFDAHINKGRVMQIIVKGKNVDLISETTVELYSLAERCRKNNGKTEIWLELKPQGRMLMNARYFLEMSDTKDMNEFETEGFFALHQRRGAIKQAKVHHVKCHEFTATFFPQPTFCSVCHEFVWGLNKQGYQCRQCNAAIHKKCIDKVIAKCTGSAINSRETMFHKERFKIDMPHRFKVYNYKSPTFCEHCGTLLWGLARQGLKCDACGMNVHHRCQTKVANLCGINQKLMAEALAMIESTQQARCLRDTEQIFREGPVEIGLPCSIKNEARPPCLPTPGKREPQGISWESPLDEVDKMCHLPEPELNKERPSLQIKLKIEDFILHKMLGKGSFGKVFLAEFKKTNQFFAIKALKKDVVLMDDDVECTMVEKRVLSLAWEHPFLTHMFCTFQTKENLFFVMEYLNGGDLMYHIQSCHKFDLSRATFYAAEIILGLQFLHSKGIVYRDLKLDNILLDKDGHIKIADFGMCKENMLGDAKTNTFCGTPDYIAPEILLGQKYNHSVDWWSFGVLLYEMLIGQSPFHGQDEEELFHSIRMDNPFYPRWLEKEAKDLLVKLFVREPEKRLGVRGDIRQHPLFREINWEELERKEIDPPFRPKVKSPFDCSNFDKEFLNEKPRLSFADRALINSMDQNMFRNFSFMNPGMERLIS
Sequence of Wee1-like protein kinase (P30291 whole entry): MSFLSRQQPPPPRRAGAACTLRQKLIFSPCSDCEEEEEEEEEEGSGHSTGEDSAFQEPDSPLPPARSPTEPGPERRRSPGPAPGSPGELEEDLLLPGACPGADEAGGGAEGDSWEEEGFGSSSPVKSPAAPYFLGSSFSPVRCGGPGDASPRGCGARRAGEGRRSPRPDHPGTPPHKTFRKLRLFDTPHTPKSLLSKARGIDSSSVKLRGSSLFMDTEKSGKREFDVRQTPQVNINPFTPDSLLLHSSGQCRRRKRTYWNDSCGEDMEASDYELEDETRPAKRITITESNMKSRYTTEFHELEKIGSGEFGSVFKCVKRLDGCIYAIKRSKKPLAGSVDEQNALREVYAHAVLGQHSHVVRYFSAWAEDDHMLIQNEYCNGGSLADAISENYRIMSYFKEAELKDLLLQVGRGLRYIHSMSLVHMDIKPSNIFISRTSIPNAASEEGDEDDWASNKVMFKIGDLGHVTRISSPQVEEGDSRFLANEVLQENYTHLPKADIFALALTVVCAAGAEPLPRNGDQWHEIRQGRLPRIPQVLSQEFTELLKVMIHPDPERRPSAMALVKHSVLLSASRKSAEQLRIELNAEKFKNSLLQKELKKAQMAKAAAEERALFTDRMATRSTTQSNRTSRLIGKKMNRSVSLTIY
Sequence of Mitogen-activated protein kinase 9 (P45984 whole entry): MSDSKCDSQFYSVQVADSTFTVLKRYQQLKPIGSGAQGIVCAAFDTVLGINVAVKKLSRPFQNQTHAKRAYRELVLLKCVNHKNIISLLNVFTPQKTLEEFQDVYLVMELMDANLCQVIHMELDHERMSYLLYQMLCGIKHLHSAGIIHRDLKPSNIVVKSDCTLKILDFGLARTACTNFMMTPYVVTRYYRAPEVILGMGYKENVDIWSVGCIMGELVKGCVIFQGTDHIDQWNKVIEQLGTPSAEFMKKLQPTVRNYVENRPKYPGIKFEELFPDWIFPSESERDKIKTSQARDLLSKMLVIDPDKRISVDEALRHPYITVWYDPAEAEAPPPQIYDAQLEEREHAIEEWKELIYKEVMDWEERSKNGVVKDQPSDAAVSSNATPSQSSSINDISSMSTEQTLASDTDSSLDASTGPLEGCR

As for `Nc1ncnc2c1c(-c1cccc(OCc3ccccc3)c1)cn2[C@H]1C[C@@H](CN2CCC2)C1` [AEW-541], the Kd in [1], in assay [2], in assay [3], in [4], in assay [5] and in assay [6] was > 30 µM (inactive) throughout. The Kd in assay [7], in assay [8], in [9], in assay [10] and in assay [11] was > 30 µM (inactive) each time.

As for `C=CC(=O)Nc1cc2c(Nc3ccc(F)c(Cl)c3)ncnc2cc1C#CC(C)(C)N1CCN(C)CC1` [AV-412 FREE BASE], the Kd in assay [1], in assay [2], in assay [3], in assay [4], in [5] and in assay [6] was > 30 µM (inactive) each time. Moreover, the Kd in [7], in assay [8], in assay [9], in [10] and in assay [11] was > 30 µM (inactive) each time.

For the compound `CCS(=O)(=O)N1CCN(c2ccc(Nc3ncc(C(N)=O)c(NC4CC4)n3)cc2)CC1` [Cerdulatinib Hydrochloride], the Kd in [1] was > 30 µM (inactive); in assay [2] it was > 30 µM (inactive); in assay [3] it was > 30 µM (inactive); in assay [4] it was > 30 µM (inactive); in [5], 0.44 µM (active); in assay [6], > 30 µM (inactive). The Kd was 0.0007 µM (active) in [7]; > 30 µM (inactive) in assay [8]; > 30 µM (inactive) in assay [9]; > 30 µM (inactive) in assay [10]; 1.43 µM (active) in [11].

Consider `CCn1cc(-c2ccnc3[nH]c(-c4cccc(CN(C)C)c4)cc23)c(-c2ccc(NC(=O)N(C)C)cc2)n1` [GSK-1070916], for which the Kd in assay [1], in [2], in assay [3], in assay [5], in [6] and in assay [8] was > 30 µM (inactive) in each case. In addition, the Kd in [9] and in assay [10] was > 30 µM (inactive) each time.

As to `O=C(Nc1cc(C(F)(F)F)cc(C(F)(F)F)c1)c1cc(Cl)ccc1O` [IMD-0354], the Kd in assay [1], in [3], in [4], in assay [5], in [6] and in assay [7] was > 30 µM (inactive) throughout. The Kd in assay [8], in [9], in assay [10] and in assay [11] was > 30 µM (inactive) throughout.

On to `CNC(=O)c1nn(C)c2c1C(C)(C)Cc1cnc(Nc3ccc(N4CCN(C)CC4)cc3)nc1-2` [MILCICLIB], for which the Kd in assay [1], in assay [2], in [3], in assay [4], in assay [5] and in [6] was > 30 µM (inactive) in each case. Also, the Kd in [9] is 3.75 µM; in [10], 0.013 µM (active); in assay [11], > 30 µM (inactive).

On to `Cn1cc(-c2cnc3ccc4ccc(CS(=O)(=O)NCc5ccccn5)cc4c(=O)c3c2)cn1` [MK-8033], for which the Kd in assay [1], in assay [3], in assay [4], in assay [5], in assay [6] and in assay [7] was > 30 µM (inactive) throughout. For the same compound, the Kd in assay [8], in [9], in assay [10] and in assay [11] was > 30 µM (inactive) each time.

`Cc1[nH]c(/C=C2\C(=O)Nc3ccccc32)c(C)c1CCC(=O)O` [ORANTINIB]: the Kd in assay [1] is > 30 µM (inactive); in assay [2], > 30 µM (inactive); in assay [3], > 30 µM (inactive); in assay [7], 1.18 µM (active); in assay [9], > 30 µM (inactive); in [10], > 30 µM (inactive).

Turning to `N#CC[C@H](C1CCCC1)n1cc(-c2ncnc3[nH]ccc23)cn1` [RUXOLITINIB], the Kd was > 30 µM (inactive) in assay [1], > 30 µM (inactive) in assay [2], > 30 µM (inactive) in assay [4] and 0.196 µM (active) in assay [7].

As to `CN1CCN(CCOc2cc(OC3CCOCC3)c3c(Nc4c(Cl)ccc5c4OCO5)ncnc3c2)CC1` [SARACATINIB], the Kd in assay [1] was > 30 µM (inactive); in assay [2], > 30 µM (inactive); in assay [3], 39.6 µM (active); in assay [5] it was > 30 µM (inactive); in assay [6], > 30 µM (inactive); in assay [7], > 30 µM (inactive). The Kd in [8], in assay [10] and in [11] was > 30 µM (inactive) throughout.

On to `Cn1ncc(Cl)c1-c1cc(C(=O)N[C@H](CN)Cc2ccc(F)c(F)c2)oc1Cl` [UPROSERTIB], for which the Kd in [1], in [2], in [3], in assay [4], in assay [5] and in assay [7] was > 30 µM (inactive) in each case. Further, the Kd in assay [8], in [9], in [10] and in assay [11] was > 30 µM (inactive) throughout.

In the case of `CC(C)c1cc(CNc2nc(Nc3cc(C4CC4)[nH]n3)cc(N3CCN(C)CC3)n2)on1` [XL-228], the Kd in assay [1], in [2], in [3], in [4], in assay [5] and in assay [6] was > 30 µM (inactive) throughout. In addition, the Kd is 2.34 µM (active) in assay [8], 0.008 µM (active) in assay [9], > 30 µM (inactive) in assay [10] and > 30 µM (inactive) in assay [11].
